What was measured:
[1] = double blind three-week study of calcium retention and absorption, inulin delivered in a RTE cereal (mass balance, stable isotope enrichment); type: in vivo, human; conditions: adolescent girls, ages 11-13, roughly 1600 mg calcium per day and 9 grams of inulin, three weeks
Experimental: In one double blind study ranging over a period of three weeks, a number of adolescent girls, ages 11-13, were provided with a diet containing roughly 1600 mg/calcium per day and 9 grams of inulin. The diet was delivered as part of a RTE cereal and the amount of calcium retention and absorption was measured by mass balance and stable isotope enrichment. Stool and urine samples were collected and analyzed for calcium excretion by atomic absorption spectrometry. Calcium retention was calculated as: Diet Ca−urine Ca−fecal Ca. Blood samples were also taken at prescribed intervals and serum and urine were analyzed for Ca by plasma mass spectrometry. The results of the analysis provided that inulin had no effect on the retention or absorption of calcium by subjects in this particular demographic.

[2] = calcium absorbed and retained in postmenopausal women versus placebo; type: in vivo, human; conditions: inulin in a food product
Description: It is believed that food products prepared in accordance with the present invention, would however provide an enhanced benefit to certain selected demographic sections of the population, namely postmenopausal women.

[3] = associated with a 1000-mg calcium intake increase; women of various ages; estimate; cited from earlier work

| Compound | effect on absorption of calcium [1] | effect on retention of calcium [1] | level of calcium absorbed and retained versus placebo [2] | decrease in mean body weight [3] [kg] |
| --- | --- | --- | --- | --- |
| inulin | no effect | no effect | higher |  |
| [Ca+2] [calcium] |  |  |  | 8 |
